The molecules below were run against ADAMTS4 (Homo sapiens (Human), UniProt O75173) (assay: Selectivity assay for ADAMTS-7 modulators: ADAMTS4 (FRET substrate)). Settings: ADAMTS4 (R&D 4307-AD) 50 nM, substrate Dabcyl-EEVKAKVQPY-Glu(Edans)-NH2 1 μM, 120 min, 32° C.
Type: biochemical
How it was run: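 Human ADAMTS4 with compound in DMSO, or DMSO control; reaction started by adding FRET substrate in reaction buffer. Fluorescence increase measured at substrate-specific wavelengths. IC50 derived from % inhibition of enzyme activity versus compound concentration.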

Chain of ADAMTS4 (O75173 213-685): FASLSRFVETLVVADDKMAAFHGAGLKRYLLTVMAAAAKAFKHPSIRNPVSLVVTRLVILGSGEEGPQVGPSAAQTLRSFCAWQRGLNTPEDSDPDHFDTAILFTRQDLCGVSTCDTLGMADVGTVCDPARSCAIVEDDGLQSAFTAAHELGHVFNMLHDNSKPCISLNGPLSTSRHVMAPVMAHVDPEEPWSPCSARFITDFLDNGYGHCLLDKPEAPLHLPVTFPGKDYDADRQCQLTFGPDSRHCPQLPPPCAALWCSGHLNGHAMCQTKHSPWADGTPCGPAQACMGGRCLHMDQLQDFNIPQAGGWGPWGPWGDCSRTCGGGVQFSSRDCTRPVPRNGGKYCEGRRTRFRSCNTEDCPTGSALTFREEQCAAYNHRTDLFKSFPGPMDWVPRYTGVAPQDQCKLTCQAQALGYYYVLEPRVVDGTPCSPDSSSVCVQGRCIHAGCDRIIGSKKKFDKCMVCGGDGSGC

Structure (SMILES) | IC50
O=C1NC(=O)C(CNC(=O)c2ccccc2-c2ccc(C(F)(F)F)cc2)(C2(Cl)CC2)N1 (stereo not drawn) [Example 280, Ent-N-{[4-(1-Chlorocyclopropyl)-2,5-Dioxoimidazolidin-4-Yl]Methyl}-4′-(Trifluoromethyl)[Biphenyl]-2-Carboxamide] | 7.1 µM
Cn1nccc1C1(CNC(=O)c2c(F)cccc2-c2ccc(Cl)cc2)NC(=O)NC1=O (single isomer, unassigned; ent-4) [Example 312, Ent-4′-Chloro-3-Fluoro-N-{[4-(1-Methyl-1H-Pyrazol-5-Yl)-2,5-Dioxoimidazolidin-4-Yl]Methyl}[Biphenyl]-2-Carboxamide] | 20 µM
O=C1NC(=O)C(CNC(=O)c2ccc(F)c(F)c2-c2ccc(C(F)(F)F)cc2)(c2ccnn2-c2ccccc2)N1 (racemic) [Example 315, Rac-N-{[2,5-Dioxo-4-(1-Phenyl-1H-Pyrazol-5-Yl)Imidazolidin-4-Yl]Methyl}-5,6-Difluoro-4′-(Trifluoromethyl)[Biphenyl]-2-Carboxamide] | 1.3 µM
Cc1cc(C2(CNC(=O)c3ccccc3-c3ccc(C(F)(F)F)cc3)NC(=O)NC2=O)n(C)n1 (racemic) [Example 275, Rac-N-{[4-(1,3-Dimethyl-1H-Pyrazol-5-Yl)-2,5-Dioxoimidazolidin-4-Yl]Methyl}-4′-(Trifluoromethyl)[Biphenyl]-2-Carboxamide] | 9.1 µM
CCC(F)(F)c1ccc(-c2ccccc2C(=O)NC[C@@]2(C3CC3)NC(=O)NC2=O)cc1 [Example 102, N-{[(4R)-4-Cyclopropyl-2,5-Dioxoimidazolidin-4-Yl]Methyl}-4′-(1,1-Difluoropropyl)[Biphenyl]-2-Carboxamide] | 6.6 µM
Cn1ccnc1C1(CNC(=O)c2ccccc2-c2ccc(Cl)cc2)NC(=O)NC1=O (single isomer, unassigned; ent-4) [Example 155, Ent-4′-Chloro-N-{[4-(1-Methyl-1H-Imidazol-2-Yl)-2,5-Dioxoimidazolidin-4-Yl]Methyl}[Biphenyl]-2-Carboxamide] | 5.9 µM
O=C1NC(=O)C(CNC(=O)c2ccc(F)cc2-c2ccc(C(F)(F)F)cc2)(c2ncsc2C2CC2)N1 (racemic) [Example 272, Rac-N-{[4-(5-Cyclopropyl-1,3-Thiazol-4-Yl)-2,5-Dioxoimidazolidin-4-Yl]Methyl}-5-Fluoro-4′-(Trifluoromethyl)[Biphenyl]-2-Carboxamide] | 7.8 µM
O=C1NC(=O)C(CNC(=O)c2ccccc2-c2ccc(C(F)(F)F)cc2)(C2CC(F)(F)C2)N1 (stereo not drawn) [Example 248, Ent-N-{[4-(3,3-Difluorocyclobutyl)-2,5-Dioxoimidazolidin-4-Yl]Methyl}-4′-(Trifluoromethyl)[Biphenyl]-2-Carboxamide] | > 50 µM
Cn1ccnc1C1(CNC(=O)c2ccccc2-c2ccc(C(F)(F)F)cc2)NC(=O)NC1=O (stereo not drawn) [Example 148, Ent-N-{[4-(1-Methyl-1H-Imidazol-2-Yl)-2,5-Dioxoimidazolidin-4-Yl]Methyl}-4′-(Trifluoromethyl)[Biphenyl]-2-Carboxamide] | 1.84 µM
Cc1c(C2(CNC(=O)c3ccccc3-c3ccc(C(F)(F)F)cc3)NC(=O)NC2=O)cnn1C (stereo not drawn) [Example 31, Ent-N-{[4-(1,5-Dimethyl-1H-Pyrazol-4-Yl)-2,5-Dioxoimidazolidin-4-Yl]Methyl}-4′-(Trifluoromethyl)[Biphenyl]-2-Carboxamide] | 6.5 µM
CC(C)(C)C1(CNC(=O)c2ccccc2-c2ccc(C(F)(F)F)cc2)NC(=O)NC1=O (stereo not drawn) [Example 71, Ent-N-[(4-Tert-Butyl-2,5-Dioxoimidazolidin-4-Yl)Methyl]-4′-(Trifluoromethyl)[Biphenyl]-2-Carboxamide] | 16.3 µM
O=C1NC(=O)C(CNC(=O)c2ccc(F)cc2-c2ccc(C(F)(F)F)cc2)(C23CC(F)(C2)C3)N1 (racemic) [Example 293, Rac-5-Fluoro-N-{[4-(3-Fluorobicyclo[1.1.1]Pentan-1-Yl)-2,5-Dioxoimidazolidin-4-Yl]Methyl}-4′-(Trifluoromethyl)[Biphenyl]-2-Carboxamide] | > 50 µM
O=C1NC(=O)C(CNC(=O)c2ccccc2-c2ccc(C(F)(F)F)cc2)(c2ncccc2C(F)(F)F)N1 (racemic) [Example 243, Rac-N-({2,5-Dioxo-4-[3-(Trifluoromethyl)Pyridin-2-Yl]Imidazolidin-4-Yl}Methyl)-4′-(Trifluoromethyl)[Biphenyl]-2-Carboxamide] | 45 µM
O=C1NC(=O)[C@](CNC(=O)c2ccccc2-c2ccc(OC(F)(F)F)cc2)(C2CC2)N1 [Example 21, N-{[(4R)-4-Cyclopropyl-2,5-Dioxoimidazolidin-4-Yl]Methyl}-4′-(Trifluoromethoxy)[Biphenyl]-2-Carboxamide] | > 50 µM
O=C1NC(=O)[C@](CNC(=O)c2ccncc2-c2ccc(C(F)(F)F)cc2)(C2CC2)N1 [Example 83, N-{[(4R)-4-Cyclopropyl-2,5-Dioxoimidazolidin-4-Yl]Methyl}-3-[4-(Trifluoromethyl)Phenyl]Pyridine-4-Carboxamide] | 36 µM
Cc1ccc(-c2ccccc2C(=O)NCC2(c3ccccn3)NC(=O)NC2=O)cc1 (racemic) [Example 164, Rac-N-{[2,5-Dioxo-4-(Pyridin-2-Yl)Imidazolidin-4-Yl]Methyl}-4′-Methyl[Biphenyl]-2-Carboxamide] | 14 µM
CC(C)C1(CNC(=O)c2cc(F)ccc2-c2ccc(C(F)(F)F)cc2)NC(=O)NC1=O (single isomer, unassigned; ent-4) [Example 212, Ent-4-Fluoro-N-[(4-Isopropyl-2,5-Dioxoimidazolidin-4-Yl)Methyl]-4′-(Trifluoromethyl)[Biphenyl]-2-Carboxamide] | 13 µM
Cc1cnn(C)c1C1(CNC(=O)c2ccccc2-c2ccc(C(F)(F)F)cc2)NC(=O)NC1=O (racemic) [Example 61, Rac-N-{[4-(1,4-Dimethyl-1H-Pyrazol-5-Yl)-2,5-Dioxoimidazolidin-4-Yl]Methyl}-4′-(Trifluoromethyl)[Biphenyl]-2-Carboxamide] | 7.4 µM
O=C1NC(=O)C(CNC(=O)c2ccccc2-c2ccc(C(F)(F)F)cc2)(C2(F)CC2)N1 (stereo not drawn) [Example 255, Ent-N-{[4-(1-Fluorocyclopropyl)-2,5-Dioxoimidazolidin-4-Yl]Methyl}-4′-(Trifluoromethyl)[Biphenyl]-2-Carboxamide] | 10 µM
O=C1NC(=O)[C@](CNC(=O)c2cc(F)ccc2-c2ccc(Cl)cc2)(C2CC2)N1 [Example 233, 4′-Chloro-N-{[(4R)-4-Cyclopropyl-2,5-Dioxoimidazolidin-4-Yl]Methyl}-4-Fluoro[1,1′-Biphenyl]-2-Carboxamide] | 6.5 µM
Cc1c(C2(CNC(=O)c3ccccc3-c3ccc(C(F)(F)F)cc3)NC(=O)NC2=O)cnn1C (racemic) [Example 14, Rac-N-{[4-(1,5-Dimethyl-1H-Pyrazol-4-Yl)-2,5-Dioxoimidazolidin-4-Yl]Methyl}-4′-(Trifluoromethyl)[Biphenyl]-2-Carboxamide] | 17 µM
Cc1ccc(-c2ccccc2C(=O)NCC2(C3CCC3)NC(=O)NC2=O)cc1 (stereo not drawn) [Example 236, Ent-N-[(4-Cyclobutyl-2,5-Dioxoimidazolidin-4-Yl)Methyl]-4′-Methyl[Biphenyl]-2-Carboxamide] | 15 µM
Cc1scnc1C1(CNC(=O)c2ccc(F)cc2-c2ccc(Cl)cc2)NC(=O)NC1=O (racemic) [Example 169, Rac-4′-Chloro-5-Fluoro-N-{[4-(5-Methyl-1,3-Thiazol-4-Yl)-2,5-Dioxoimidazolidin-4-Yl]Methyl}[Biphenyl]-2-Carboxamide] | 8.5 µM
CCCC1(CNC(=O)c2ccccc2-c2ccc(C(F)(F)F)nc2)NC(=O)NC1=O (racemic) [Example 57, Rac-N-[(2,5-Dioxo-4-Propylimidazolidin-4-Yl)Methyl]-2-[6-(Trifluoromethyl)Pyridin-3-Yl]Benzamide] | > 50 µM
Cc1ccc(C(=O)NC[C@@]2(C3CC3)NC(=O)NC2=O)c(-c2ccc(C3CC3(F)F)cc2)c1 (single isomer, unassigned) [Example 137] | 13 µM
O=C1NC(=O)C(CNC(=O)c2ccccc2-c2ccc(C(F)(F)F)cc2)(c2ccnn2CC(F)(F)F)N1 (stereo not drawn) [Example 28, Ent-N-({2,5-Dioxo-4-[1-(2,2,2-Trifluoroethyl)-1H-Pyrazol-5-Yl]Imidazolidin-4-Yl}Methyl)-4′-(Trifluoromethyl)[Biphenyl]-2-Carboxamide] | 11 µM
CC(C)C1(CNC(=O)c2cc(F)c(F)cc2-c2ccc(C(F)(F)F)cc2)NC(=O)NC1=O (single isomer, unassigned; ent-4) [Example 213, Ent-4,5-Difluoro-N-[(4-Isopropyl-2,5-Dioxoimidazolidin-4-Yl)Methyl]-4′-(Trifluoromethyl)[Biphenyl]-2-Carboxamide] | 30 µM
Cn1nccc1C1(CNC(=O)c2ccccc2-c2ccc(C(F)(F)F)nc2)NC(=O)NC1=O (stereo not drawn) [Example 190, Ent-N-{[4-(1-Methyl-1H-Pyrazol-5-Yl)-2,5-Dioxoimidazolidin-4-Yl]Methyl}-2-[6-(Trifluoromethyl)Pyridin-3-Yl]Benzamide] | 12 µM
O=C1NC(=O)C(CNC(=O)c2ccc(F)cc2-c2ccc(Cl)cc2)(C2(F)CC2)N1 (racemic) [Example 249, Rac-4′-Chloro-5-Fluoro-N-{[4-(1-Fluorocyclopropyl)-2,5-Dioxoimidazolidin-4-Yl]Methyl}[Biphenyl]-2-Carboxamide] | 35 µM
O=C1NC(=O)[C@](CNC(=O)c2ccc(F)cc2-c2ccc(C(F)(F)F)nc2)(C2CC2)N1 [Example 290, N-{[(4R)-4-Cyclopropyl-2,5-Dioxoimidazolidin-4-Yl]Methyl}-4-Fluoro-2-[6-(Trifluoromethyl)Pyridin-3-Yl]Benzamide] | 21 µM

Same assay, conditions: ADAMTS4 (R&D 4307-AD) 50 nM, substrate Dabcyl-[…]-Glu(Edans)-NH2 1 μM, 120 min, 32° C.

Structure (SMILES) | IC50
O=C1NC(=O)C(CNC(=O)c2ccc(F)cc2-c2ccc(Cl)cc2)(C2(F)CC2)N1 (single isomer, unassigned; ent-4) [Example 301, Ent-4′-Chloro-5-Fluoro-N-{[4-(1-Fluorocyclopropyl)-2,5-Dioxoimidazolidin-4-Yl]Methyl}[Biphenyl]-2-Carboxamide] | 15 µM

From patent publication US12398120B2, “Substituted hydantoinamides as ADAMTS7 antagonists” (BAYER AKTIENGESELLSCHAFT, priority 2019, dated 2025)
